Data taken from patent US10711247B2, “Method for reducing pluripotent stem cells, method for producing cell population having reduced pluripotent stem cells” (TOKYO WOMEN'S MEDICAL UNIVERSITY, priority 2015, dated 2020).
Where two headings read alike, the source gives them in different places.

Experiments:
feeder-less iPS cells [1] = system: feeder-less iPS cells
Protocol: (§1) FIGS. 8A and 8B indicate the results of culturing iPS cells cultured on laminin E8 fragments following the addition of capsaicin. Vehicle-1 represents the control used in the experiment in which capsaicin was added at 2×10^−4 M, Vehicle-2 represents the control used in the experiment in which capsaicin was added at 1×10^−4 M, and Vehicle-3 represents the control used in the experiment in which capsaicin was added at 1×10^−5 M. The upper panels in FIG. 8A indicates phase-contrast images and the bars represent 100 μm. The middle panels indicate Hoechst staining images and the bars represent 200 μm. The lower panels indicate montage images of 36 fields (6×6) of the Hoechst staining images. FIG. 8B is a graph indicating the numbers of cells in 36 fields under each condition.
(§2) Human iPS cell lines 253G1 and 2017 were purchased from RIKEN (Ibaraki, Japan). Transfer of human iPS cell line 1231A3 was received from Kyoto University.

feeder-less iPS cells [2] = test: feeder-less iPS cells cultured with TRPV-1 agonists, number of cells in 36 fields (Hoechst staining); settings: feeder-less iPS cells on laminin E8 fragments
Protocol: as §1, §2

[3] = system: iPS cell-derived cardiomyocytes; test: iPS cell-derived cardiomyocytes cultured in medium containing capsaicin; type: cell-based, human
Protocol: Prior to seeding the cells, the surface of a temperature-responsive culture dish (Upcell®, CellSeed Inc., Tokyo, Japan) or cell culture dish (Corning, Inc., Corning, N.Y., USA) was coated with fetal bovine serum (FBS) for 2 hours. After the iPS cells were induced to differentiate into cardiomyocytes, the cells were detached using 0.05% trypsin/EDTA and the cell aggregates were broken up into single cells using a strainer (BD Biosciences, Inc., San Jose, Calif., USA), followed by seeding in a culture dish at 2.1×10^5 cells/cm^2 using DMEM medium (Sigma-Aldrich Corp., St. Louis, Mo., USA) containing 10% FBS and culturing in a humidified atmosphere at 37° C. and 5% CO2. In several of the experiments, the cells were treated with puromycin (Sigma-Aldrich Corp., 1.5 μg/mL) for 1 day to purify the iPS cell-derived cardiomyocytes (strain 201B7, αMHC-puro/Rex1-neo).

CCCCCCCC/C=C\CCCCCCCC(=O)NCCc1ccc(O)c(O)c1 [OLDA, N-oleoyldopamine]
cytotoxic activity against iPS cells (feeder-less iPS cells [1]): demonstrated cytotoxic activity against iPS cells

CCCCC/C=C\C/C=C\C/C=C\C/C=C\CCCC(=O)NCc1ccc(O)c(OC)c1 [arvanil]
cytotoxic activity against iPS cells (feeder-less iPS cells [2]; FIGS. 9 and 10): demonstrated cytotoxic activity against iPS cells

COc1cc(CNC(=O)CCCC/C=C/C(C)C)ccc1O [capsaicin]
independent pulsation of the cardiomyocytes ([3]; capsaicin 200 μM and 100 μM (concentrations toxic to iPS cells)): maintained | numbers of Nkx2.5-positive cells ([3]; capsaicin 200 μM and 100 μM, compared with vehicle (FIGS. 8C and 8D)): no changes | number of cells (feeder-less iPS cells [2]; capsaicin 2×10^−4 M, 1×10^−4 M, 1×10^−5 M vs vehicle (FIGS. 8A and 8B)): significantly decreased concentration-dependently
